Laboratory results: patent US11254720B2, “Methods and systems for designing and/or characterizing soluble lipidated ligand agents” (Tufts Medical Center, priority 2013, dated 2022)
Where two headings read alike, the source gives them in different places. Non-standard residues stand in square brackets, D forms with d. Residues, ends and D or L forms follow the SMILES beside them. Tic = O=C(O)[C@@H]1Cc2ccccc2CN1

Assays:
[1] = tested on: Adult CD1 mice; experiment: Chronic constriction injury neuropathic pain model, von Frey and acetone tests; format: in vivo, mouse; conditions: intrathecal 100 pmol, 1 week after CCI
Excerpt: Intrathecal injection of 1-stable chem (100 pmol), 1 week after CCI, reduces CCI-induced mechanical hypersensitivity (panels A+C) and cold allodynia (panel E). Intrathecal injection of ResolvinE1 (RvE1)(100 pmol), 1 week after CCI, reduces CCI-induced mechanical hypersensitivity (panels B+D) and cold allodynia (panel F). BL=baseline before surgery.
Adult CD1 mice (male, 25-35 g) were used for behavioral studies. Mice were group-housed and kept under a 12-hour light/dark cycle. […]
Nerve injury-induced mechanical allodynia and hypersensitivity were assessed by von Frey hairs as previously described (see Xu et al., Resolvin E1 inhibits neuropathic pain and spinal cord microglial activation following peripheral nerve injury, 2013, J. Neuroimmune Pharmacol, 8: 37-41). […] The 50% paw withdrawal threshold (PWT) was determined using Dixon's up-down method. For paw withdrawal frequency (PWF), the same von Frey hair (0.16 g) was applied 10 times and the number of positive responses to the stimulations counted. A positive response was scored if the mouse sharply withdrew the paw or flinched upon removal of the stimulus. […] In brief, a drop of acetone was placed against the plantar paw of the mouse and the mouse's response monitored for the next 20 seconds. […]

[2] = molecular target: T1, human CMKLR1 (Homo sapiens, UniProt Q99788); experiment: SRE-luciferase reporter gene assay in transfected HEK293 cells; conditions: for Activity of membrane-tethered ligand at human CMKLR1: tethered ligand cDNA cotransfected, luciferase 24 hours after transfection
T1 sequence (Q99788 1-373): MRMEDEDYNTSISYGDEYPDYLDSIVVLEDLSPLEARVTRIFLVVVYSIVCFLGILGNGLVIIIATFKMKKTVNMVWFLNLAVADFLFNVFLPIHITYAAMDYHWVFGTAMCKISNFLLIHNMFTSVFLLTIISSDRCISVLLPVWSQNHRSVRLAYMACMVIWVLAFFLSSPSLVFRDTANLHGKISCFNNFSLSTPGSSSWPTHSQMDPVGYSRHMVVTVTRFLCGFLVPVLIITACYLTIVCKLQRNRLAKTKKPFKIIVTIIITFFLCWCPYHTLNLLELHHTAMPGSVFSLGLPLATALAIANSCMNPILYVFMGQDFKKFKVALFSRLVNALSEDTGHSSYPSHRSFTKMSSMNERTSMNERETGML
Experimental: (§1) Receptor-mediated signaling was assessed as previously described. Briefly, HEK293 cells were plated at a density of 6,000 cells/well into 96-well clear-bottom plates and grown to ˜80% confluence. […] Expression of Gq5i66V directs signaling of the Gαi-coupled chemerin receptor to stimulation of a Gαq-dependent SRE5x-Luc-PEST reporter gene. For experiments investigating the agonist function of soluble and lipidated peptides, tethered ligand cDNA was not included in the transfection mixture. Twenty four hours after transfection, cells were stimulated with or without peptide agonist for 4 hours in serum-free medium. […] Following ligand stimulation, the media was aspirated and luciferase activity measured using SteadyLite reagent and quantified using a TopCount NTX. A β-galactosidase assay was then performed following assessment of luminescence. Cleavage of 2-nitrophenyl β-D-galactopyranoside substrate was quantified after incubation of cell lysates at 37° C. for 30 to 60 minutes by measuring the optical density at 420 nm on a SpectraMax microplate reader. Luciferase reporter gene activities were normalized to corresponding β-galactosidase activity controls.
(§2) HEK293 cells were transiently transfected with cDNAs encoding i) human or mouse CMKLR1, ii) a SRE5x-Luc reporter gene, iii) a Gαq5i66V chimera, and iv) a β-galactosidase control. Twenty-four hours after transfection, cells were stimulated with ligand for 4 hours and luciferase activity determined as described in Experimental Procedures. Luciferase activity was normalized relative to the maximal value observed using saturating concentrations of the corresponding soluble ligand (=100%). […] As a next step, the effect of membrane anchoring on chemerin activity was examined. […] HEK293 cells were transiently transfected with cDNAs encoding i) various tethered ligands, ii) human or mouse CMKLR1, iii) a SRE5x-Luc reporter gene, iv) aGαq5i66V chimera, and v) a β-galactosidase control. Twenty-four hours after transfection, luciferase activity was determined as described in Experimental Procedures.
(§3) HEK293 cells were transiently transfected with cDNAs encoding i) 8 ng of various tethered ligands, ii) human or mouse CMKLR1, iii) a SRE5x-Luc reporter gene, iv) a Gαq5i66V chimera, and v) a β-galactosidase control. Twenty-four hours after transfection, luciferase activity was determined as described in Experimental Procedures.

[3] = molecular target: T2, mouse CMKLR1 (Mus musculus, UniProt P97468); experiment: as above; conditions: for Activity of membrane-tethered ligand at mouse CMKLR1: tethered ligand cDNA cotransfected, luciferase 24 hours after transfection
T2 sequence (P97468 1-371): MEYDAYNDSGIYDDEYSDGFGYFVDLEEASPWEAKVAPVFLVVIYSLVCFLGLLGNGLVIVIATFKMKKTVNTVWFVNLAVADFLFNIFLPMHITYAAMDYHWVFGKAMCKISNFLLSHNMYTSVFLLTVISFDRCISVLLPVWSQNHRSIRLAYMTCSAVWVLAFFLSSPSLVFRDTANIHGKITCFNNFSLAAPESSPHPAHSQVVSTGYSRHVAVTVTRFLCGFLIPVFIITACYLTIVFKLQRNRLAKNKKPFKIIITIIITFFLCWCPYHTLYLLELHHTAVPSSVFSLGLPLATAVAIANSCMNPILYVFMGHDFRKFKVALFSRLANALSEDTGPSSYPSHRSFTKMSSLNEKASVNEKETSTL
Experimental: as §1, §2, §3

[4] = molecular target: T1, human CMKLR1; experiment: Washout experiments (serial washes after 15 min ligand, luciferase readout); conditions: three washes after 15 min ligand
Experimental: (§4) Agonist activity was compared with and without serial washings shortly after addition of ligand. Briefly, HEK293 cells were plated and transfected as described above with the addition of a poly-L-lysine plate pretreatment step to enhance cell adhesion. Twenty-four hours after transfection, cells were stimulated with increasing concentrations of agonist for 15 minutes at 37° C. Selected wells were washed three times with serum-free media. Plates were then incubated for an additional 4 hours. Receptor mediated signaling was assessed using a luciferase based assay as described above.
(§5) HEK293 cells were transiently transfected with cDNAs encoding i) human or mouse CMKLR1, ii) a SRE5x-Luc reporter gene, iii) a Gαq5i66V chimera, and iv) a β-galactosidase control. Twenty-four hours after transfection, cells were stimulated with increasing concentrations of various ligands for 15 minutes. Selected wells were then washed three times with serum-free media and plates were further incubated for 4 hours.

[5] = tested on: HEK293 cells transfected with vector control (pcDNA1.1); experiment: Luciferase reporter assay in cells transfected with vector control; format: cell-based, human; conditions: cells transfected with pcDNA1.1 vector control
Experimental: as §1

[6] = molecular target: T2, mouse CMKLR1; experiment: Washout experiments (serial washes after 15 min ligand, luciferase readout); conditions: three washes after 15 min ligand
Experimental: as §4, §5

[7] = molecular target: T3, CCK2R (Homo sapiens, UniProt P32239); experiment: Antagonist inhibition of agonist-induced CCK2R signaling (luciferase); format: cell-based
T3 construct: expressed in transfected cells; host or cells: HEK293
T3 sequence (P32239 1-447): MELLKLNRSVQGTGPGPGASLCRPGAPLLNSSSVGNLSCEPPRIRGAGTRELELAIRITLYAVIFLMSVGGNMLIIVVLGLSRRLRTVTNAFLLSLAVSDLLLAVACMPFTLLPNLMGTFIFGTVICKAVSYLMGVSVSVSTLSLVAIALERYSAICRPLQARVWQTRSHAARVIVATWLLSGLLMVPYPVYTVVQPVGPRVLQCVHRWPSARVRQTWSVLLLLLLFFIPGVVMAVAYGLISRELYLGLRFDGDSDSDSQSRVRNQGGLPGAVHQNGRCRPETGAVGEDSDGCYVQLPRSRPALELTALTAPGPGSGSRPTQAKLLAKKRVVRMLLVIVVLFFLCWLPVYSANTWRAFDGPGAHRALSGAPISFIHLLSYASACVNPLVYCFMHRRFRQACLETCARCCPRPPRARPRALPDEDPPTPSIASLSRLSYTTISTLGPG
Experimental: A) YM022 blocks tethered CCK4-Gly mediated CCK2R signaling. HEK293 cells were cotransfected with cDNAs encoding: CCK2R, a 5X-SRE-Luc-pest reporter gene, tCCK4-Gly (as indicated), and a β-galactosidase gene to control for transfection efficiency. Four hours following transfection, cells were with treated with increasing concentrations of YM022 for 20 hours. […] B) YM022 blocks s-CCK-4-Gly-COOH and l-CCK4-Gly-COOH mediated activation of CCK2R. HEK293 cells were transfected as indicated above. Twenty hours after transfection, cells were with treated with increasing concentrations of YM022 together with either 10 μM of l-CCK4-Gly-COOH or s-CCK4-Gly-COOH. […] Abbreviations: tCCK4-Gly, tethered glycine extended CCK4; s-CCK4-Gly-COOH, soluble glycine extended CCK4 with a C-terminal free acid; 1-CCK4-Gly-COOH, lipidated glycine extended CCK4 with a C-terminal free acid; CCK2R, cholecystokinin 2 receptor.

Molecule: CC[C@@H](O)/C=C/C=C\C[C@@H](O)/C=C/C=C/C=C\[C@@H](O)CCCC(=O)O [RvE1, reference compound]
- Time point at which a significant decrease in pain scores was observed [1]: 1 h

Molecule: tChem 149-157: membrane-tethered C-terminal chemerin peptide (amino acids 149-157), endogenous sequence ending phenylalanine-serine (MSTSMIRDVELAEEALPKKTGGPQGSRRCLFSLFIVAGATTLFCLLHFGVIYFPGQFAFS; left off: small tags and cut ends)
- Activity of membrane-tethered ligand at human CMKLR1 [2]: activated
- Activity of membrane-tethered ligand at human CMKLR1 ([2]; listed as FS): comparable activity
- Activity of membrane-tethered ligand at mouse CMKLR1 [3]: activated

Molecule: CC(C)C[C@H](NC(=O)[C@H](Cc1ccccc1)NC(=O)[C@H](N)Cc1ccc(O)cc1)C(=O)N1CCC[C@H]1C(=O)N[C@H](CO)C(=O)N[C@@H](CCC(N)=O)C(=O)N[C@@H](Cc1ccccc1)C(=O)N[C@H](C)C(=O)N1Cc2ccccc2C[C@H]1C(=O)N[C@@H](CO)C(=O)O [s-Stable Chem, reference compound] (H-[dY]FLP[dS]QF[dA][Tic]S-OH)
- Agonist activity after serial washes, human CMKLR1 [4]: rapidly decreased
- EC50 ([2]; pEC50, Human CMKLR1, no wash, mean ± S.E.M.): 61.7 nM
- Agonist activity without CMKLR1 expression [5]: no agonist activity
- Agonist activity after serial washes, mouse CMKLR1 [6]: rapidly decreased
- EC50 ([3]; pEC50, Mouse CMKLR1, no wash, mean ± S.E.M.): 12 nM

Molecule: Cc1cccc(NC(=O)N[C@@H]2N=C(c3ccccc3)c3ccccc3N(CC(=O)c3ccccc3C)C2=O)c1 [YM022]
- IC50 ([7]; agonist l-CCK4-Gly-COOH 10 μM, 4 hours, read-out: IC50 for inhibition of l-CCK4-Gly-COOH induced CCK2R signaling): 10.2 nM
- IC50 ([7]; agonist s-CCK4-Gly-COOH 10 μM, 4 hours, read-out: IC50 for inhibition of s-CCK4-Gly-COOH induced CCK2R signaling): 0.84 nM
- IC50 ([7]; agonist tCCK4-Gly (tethered), antagonist 20 hours, read-out: IC50 for inhibition of tCCK4-Gly induced CCK2R signaling): 0.54 nM

B1: tChem 21-157: membrane-tethered full length chemerin (amino acids 21-157) (protein)
chain: MSTSMIRDVELAEEALPKKTGGPQGSRRCLFSLFIVAGATTLFCLLHFGVIELTEAQRRGLQVALEEFHKHPPVQWAFQETSVESAVDTPFPAGIFVRLEFKLQQTSCRKRDWKKPECKVRPNGRKRKCLACIKLGSEDKVLGRLVHCPIETQVLREAEEHQETQCLRVQRAGEDPHSFYFPGQFAFS
modifications: left off: small tags and cut ends
- Activity of membrane-tethered ligand at human CMKLR1 [2]: activated
- Activity of membrane-tethered ligand at mouse CMKLR1 [3]: activated

B2: tGalanin: negative control membrane-tethered ligand with the amino acid sequence of human galanin (protein)
chain: MSTSMIRDVELAEEALPKKTGGPQGSRRCLFSLFIVAGATTLFCLLHFGVIGWTLNSAGYLLGPHAVGNHRSFSDKNGLTS
modifications: left off: small tags and cut ends
- Activity of membrane-tethered ligand at human CMKLR1 [2]: lack activity
- Activity of membrane-tethered ligand at mouse CMKLR1 [3]: lack activity

B3: tChem 1-163: membrane-tethered ligand encoding pre-prochemerin (amino acids 1-163), TNFα transmembrane domain (protein)
chain: MSTSMIRDVELAEEALPKKTGGPQGSRRCLFSLFIVAGATTLFCLLHFGVIMRRLLIPLALWLGAVGVGVAELTEAQRRGLQVALEEFHKHPPVQWAFQETSVESAVDTPFPAGIFVRLEFKLQQTSCRKRDWKKPECKVRPNGRKRKCLACIKLGSEDKVLGRLVHCPIETQVLREAEEHQETQCLRVQRAGEDPHSFYFPGQFAFSKALPRS
modifications: left off: small tags and cut ends
- Activity of membrane-tethered ligand at human CMKLR1 [2]: lack activity
- Activity of membrane-tethered ligand at mouse CMKLR1 [3]: lack activity
